Measured values taken from PubChem BioAssay AID200 (DTP/NCI, 2004).
“And” between values parts separate entries of the source, which are not always exact repeats. Equal values may be shown once. Toxic doses and inconclusive results are not listed. The calls were made as follows: active = survival T/C of 150% or more; inactive = T/C below 125% in these data.

Test system: B6C3F1 mice, B16 melanoma ip, median survival T/C
Experiment: NCI In Vivo Anticancer Drug Screen. Data for tumor model B16 Melanoma (intraperitoneal) in B6C3F1 mice
Conditions: endpoint: median survival time, schedule: Q01DX009 (ip), higher = longer survival
In short: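 Values are T/C ratios: the measurement in treated animals divided by that in vehicle-treated controls, using survival or tumor size in mice carrying transplantable tumors.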

[1] = dose: 50.0 mg/kg/injection, vehicle: saline with Tween-80
[2] = dose: 100.0 mg/kg/injection, vehicle: saline with Tween-80
[3] = dose: 200.0 mg/kg/injection, vehicle: saline with Tween-80
[4] = dose: 50.0 mg/kg/injection, vehicle: Klucel (hydroxypropylcellulose) (HPC)
[5] = dose: 12.5 mg/kg/injection, vehicle: saline with Tween-80
[6] = dose: 25.0 mg/kg/injection, vehicle: saline with Tween-80

Measured: T/C

C/C=C/C=C/c1cc2cc3c(c(O)c2c(=O)[nH]1)C1(CC3)C(O)=c2c(=O)c3c(=O)cc(OC)c(=O)c=3c(=O)c2=C1O (stereo unspecified)
inactive: dose: 0.75 mg/kg/injection, vehicle: Klucel (hydroxypropylcellulose) (HPC) 114 % of control and 117 % of control | dose: 1.5 mg/kg/injection, vehicle: Klucel (hydroxypropylcellulose) (HPC) 114 % of control and 107 % of control | dose: 3.0 mg/kg/injection, vehicle: Klucel (hydroxypropylcellulose) (HPC) 116 % of control | dose: 6.0 mg/kg/injection, vehicle: Klucel (hydroxypropylcellulose) (HPC) 115 % of control | dose: 12.0 mg/kg/injection, vehicle: Klucel (hydroxypropylcellulose) (HPC) 115 % of control

Cn1nnc2c1C(=O)c1ccccc1C2=O
inactive: [1] 88 % of control | [2] 90 % of control | [3] 89 % of control

CC1CCC(n2cnc3c(Cl)ncnc32)O1 (stereo unspecified)
inactive: dose: 12.5 mg/kg/injection, vehicle: Klucel (hydroxypropylcellulose) (HPC) 97 % of control and 104 % of control | dose: 25.0 mg/kg/injection, vehicle: Klucel (hydroxypropylcellulose) (HPC) 92 % of control and 104 % of control | [4] 92 % of control and 98 % of control | dose: 100.0 mg/kg/injection, vehicle: Klucel (hydroxypropylcellulose) (HPC) 97 % of control and 104 % of control | dose: 200.0 mg/kg/injection, vehicle: Klucel (hydroxypropylcellulose) (HPC) 92 % of control and 93 % of control

O=c1[nH]cnc2c1ccn2C1OC(CO)C(O)C1O (stereo unspecified)
inactive: dose: 0.37 mg/kg/injection, vehicle: saline 106 % of control | dose: 0.75 mg/kg/injection, vehicle: saline 99 % of control | dose: 1.5 mg/kg/injection, vehicle: saline 106 % of control | dose: 3.0 mg/kg/injection, vehicle: saline 113 % of control | dose: 6.0 mg/kg/injection, vehicle: saline 115 % of control | dose: 12.0 mg/kg/injection, vehicle: saline 105 % of control

O=C(O)C1CC(c2ccccc2)=NN1c1ccccc1 (stereo unspecified)
inactive: dose: 12.5 mg/kg/injection, vehicle: water 113 % of control | dose: 25.0 mg/kg/injection, vehicle: water 120 % of control | dose: 50.0 mg/kg/injection, vehicle: water 107 % of control | dose: 100.0 mg/kg/injection, vehicle: water 103 % of control | dose: 200.0 mg/kg/injection, vehicle: water 110 % of control

S=c1sc2ccccc2n1CN1CCOCC1
inactive: [5] 99 % of control and 102 % of control | dose: 18.0 mg/kg/injection, vehicle: saline with Tween-80 89 % of control | [6] 109 % of control and 112 % of control | dose: 30.0 mg/kg/injection, vehicle: saline with Tween-80 91 % of control | [1] 113 % of control and 100 % of control | dose: 83.33 mg/kg/injection, vehicle: saline with Tween-80 100 % of control | [2] 102 % of control and 105 % of control | dose: 138.88 mg/kg/injection, vehicle: saline with Tween-80 106 % of control | [3] 95 % of control and 101 % of control

COc1cc2c[n+](C)c3c(c2cc1OC)Cc1cc2c(cc1-3)OCO2
inactive: [5] 120 % of control | dose: 12.5 mg/kg/injection, vehicle: suspension in saline 111 % of control | dose: 25.0 mg/kg/injection, vehicle: suspension in saline 111 % of control | dose: 50.0 mg/kg/injection, vehicle: suspension in saline 110 % of control

CC(=O)OC1(C)CC(C)C(=O)C(C(O)CC2CC(=O)NC(=O)C2)C1 (stereo unspecified)
inactive: dose: 15.6 micrograms/kg/injection, vehicle: saline 111 % of control | dose: 31.3 micrograms/kg/injection, vehicle: saline 107 % of control | dose: 62.5 micrograms/kg/injection, vehicle: saline 104 % of control | dose: 125.0 micrograms/kg/injection, vehicle: saline 108 % of control | dose: 250.0 micrograms/kg/injection, vehicle: saline 117 % of control

CCCN(CCC)C(C)C(O)c1cc2c(c3ccccc13)CCCC2 (stereo unspecified)
inactive: dose: 0.05 mg/kg/injection, vehicle: Klucel (hydroxypropylcellulose) (HPC) 99 % of control | dose: 0.1 mg/kg/injection, vehicle: Klucel (hydroxypropylcellulose) (HPC) 91 % of control and 103 % of control | dose: 0.2 mg/kg/injection, vehicle: Klucel (hydroxypropylcellulose) (HPC) 97 % of control and 107 % of control | dose: 0.39 mg/kg/injection, vehicle: Klucel (hydroxypropylcellulose) (HPC) 109 % of control | dose: 0.4 mg/kg/injection, vehicle: Klucel (hydroxypropylcellulose) (HPC) 96 % of control and 101 % of control | dose: 0.78 mg/kg/injection, vehicle: Klucel (hydroxypropylcellulose) (HPC) 108 % of control | dose: 1.56 mg/kg/injection, vehicle: Klucel (hydroxypropylcellulose) (HPC) 114 % of control and 95 % of control and 96 % of control | dose: 3.12 mg/kg/injection, vehicle: Klucel (hydroxypropylcellulose) (HPC) 94 % of control | dose: 6.25 mg/kg/injection, vehicle: Klucel (hydroxypropylcellulose) (HPC) 96 % of control and 101 % of control | [4] 86 % of control

CC(=O)OCC1OC(n2cc(CBr)nn2)C(OC(C)=O)C(OC(C)=O)C1OC(C)=O (stereo unspecified)
inactive: dose: 3.12 mg/kg/injection, vehicle: saline 100 % of control | dose: 6.25 mg/kg/injection, vehicle: saline 103 % of control | dose: 12.5 mg/kg/injection, vehicle: saline 102 % of control | dose: 25.0 mg/kg/injection, vehicle: saline 113 % of control and 114 % of control | dose: 50.0 mg/kg/injection, vehicle: saline 117 % of control and 119 % of control | dose: 100.0 mg/kg/injection, vehicle: saline 105 % of control

COc1ccc(C(=S)N2CCN(c3ccccc3)CC2)cc1
inactive: dose: 3.13 mg/kg/injection, vehicle: saline with Tween-80 98 % of control | dose: 6.25 mg/kg/injection, vehicle: saline with Tween-80 91 % of control | [5] 93 % of control | [6] 101 % of control

O=[N+]([O-])c1ccc(Sc2ccncn2)c([N+](=O)[O-])c1
inactive: [5] 92 % of control | [6] 105 % of control | [1] 92 % of control | [2] 101 % of control
